Measurements as given in PubChem BioAssay AID2060884 (Molecular Pharmacology Branch, DTP, NCI, 2025).

System: NCI-H929 complex spheroids, viability % test/control
Assay: Anticancer human tumor NCI-H929 cell line growth inhibition [RAS];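 note: compound exposure lasted seven days before viability was read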;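 for viability, T/C: 100% = DMSO vehicle control viability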
Settings: for IC50: curve of first compound; for viability, T/C: stronger effect = lower value
Method in brief: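 Tumour cells grown as complex spheroids with HUVEC endothelial cells and mesenchymal stem cells, treated with RAS pathway inhibitor combinations. Each agent spans half-log steps from near clinical Cmax, or 10 microM where Cmax is unknown.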

[1] = second compound 0.0316 µM, first compound 0.0316 µM
[2] = second compound 0.0316 µM, first compound 0.1 µM
[3] = second compound 0.1 µM, first compound 0.0316 µM
[4] = second compound 0.1 µM, first compound 0.1 µM
[5] = second compound 0.316 µM, first compound 0.0316 µM
[6] = second compound 0.316 µM, first compound 0.1 µM
[7] = second compound 1 µM, first compound 0.0316 µM
[8] = second compound 1 µM, first compound 0.1 µM

CC1(O)CCCC1n1c(=O)c(C(F)F)cc2cnc(NC3CCN(S(C)(=O)=O)CC3)nc21 (centres undefined) + C=CC(=O)N1CCN(c2nc(OCC3CCCN3C)nc3c(F)c(-c4nc(N)cc(C)c4C(F)(F)F)c(Cl)cc23)C(C)C1
IC50 (second compound 0.00316 µM): 184 nM | IC50 (second compound 0.01 µM): 190 nM | IC50 (second compound 0.0316 µM): 189 nM | IC50 (second compound 0.1 µM): 192 nM | IC50 (second compound 0.316 µM): 184 nM | IC50 (second compound 1 µM): 182 nM | viability, T/C (second compound 0.00316 µM, first compound 0.0316 µM): 115% | viability, T/C (second compound 0.00316 µM, first compound 0.1 µM): 101% | viability, T/C (second compound 0.00316 µM, first compound 0.316 µM): 4.56% | viability, T/C (second compound 0.00316 µM, first compound 1 µM): 8.72% | viability, T/C (second compound 0.00316 µM, first compound 3.16 µM): 2.59% | viability, T/C (second compound 0.00316 µM, first compound 10 µM): 0.82% | viability, T/C (second compound 0.01 µM, first compound 0.0316 µM): 112% | viability, T/C (second compound 0.01 µM, first compound 0.1 µM): 108% | viability, T/C (second compound 0.01 µM, first compound 0.316 µM): 3.89% | viability, T/C (second compound 0.01 µM, first compound 1 µM): 8.77% | viability, T/C (second compound 0.01 µM, first compound 3.16 µM): 3.05% | viability, T/C (second compound 0.01 µM, first compound 10 µM): 0.57% | viability, T/C [1]: 107% | viability, T/C [2]: 107% | viability, T/C (second compound 0.0316 µM, first compound 0.316 µM): 3.77% | viability, T/C (second compound 0.0316 µM, first compound 1 µM): 9.13% | viability, T/C (second compound 0.0316 µM, first compound 3.16 µM): 2.62% | viability, T/C (second compound 0.0316 µM, first compound 10 µM): 0.19% | viability, T/C [3]: 109% | viability, T/C [4]: 109% | viability, T/C (second compound 0.1 µM, first compound 0.316 µM): 4.89% | viability, T/C (second compound 0.1 µM, first compound 1 µM): 8.17% | viability, T/C (second compound 0.1 µM, first compound 3.16 µM): 2.43% | viability, T/C (second compound 0.1 µM, first compound 10 µM): 0.18% | viability, T/C [5]: 113% | viability, T/C [6]: 101% | viability, T/C (second compound 0.316 µM, first compound 0.316 µM): 4.58% | viability, T/C (second compound 0.316 µM, first compound 1 µM): 9.4% | viability, T/C (second compound 0.316 µM, first compound 3.16 µM): 2.18% | viability, T/C (second compound 0.316 µM, first compound 10 µM): 0.46% | viability, T/C [7]: 121% | viability, T/C [8]: 99.8% | viability, T/C (second compound 1 µM, first compound 0.316 µM): 4.25% | viability, T/C (second compound 1 µM, first compound 1 µM): 7.11% | viability, T/C (second compound 1 µM, first compound 3.16 µM): 2.09% | viability, T/C (second compound 1 µM, first compound 10 µM): 0.13%

CC(C)n1nc(-c2ccc3oc(N)nc3c2)c2c(N)ncnc21 + C#Cc1c(F)ccc2cc(O)cc(-c3ncc4c(N5CC6CCC(C5)N6)nc(OCC56CCCN5CC(F)C6)nc4c3F)c12
IC50 (second compound 0.0316 µM): 61.6 nM | IC50 (second compound 0.1 µM): 61.7 nM | IC50 (second compound 0.316 µM): 61.5 nM | IC50 (second compound 1 µM): 60.2 nM | IC50 (second compound 3.16 µM): 60.1 nM | IC50 (second compound 10 µM): 44.6 nM | viability, T/C (second compound 0.0316 µM, first compound 0.000316 µM): 96.7% | viability, T/C (second compound 0.0316 µM, first compound 0.001 µM): 97.5% | viability, T/C (second compound 0.0316 µM, first compound 0.00316 µM): 103% | viability, T/C (second compound 0.0316 µM, first compound 0.01 µM): 112% | viability, T/C [1]: 119% | viability, T/C [2]: 9.44% | viability, T/C (second compound 0.1 µM, first compound 0.000316 µM): 96% | viability, T/C (second compound 0.1 µM, first compound 0.001 µM): 101% | viability, T/C (second compound 0.1 µM, first compound 0.00316 µM): 105% | viability, T/C (second compound 0.1 µM, first compound 0.01 µM): 115% | viability, T/C [3]: 118% | viability, T/C [4]: 8.74% | viability, T/C (second compound 0.316 µM, first compound 0.000316 µM): 96.7% | viability, T/C (second compound 0.316 µM, first compound 0.001 µM): 108% | viability, T/C (second compound 0.316 µM, first compound 0.00316 µM): 104% | viability, T/C (second compound 0.316 µM, first compound 0.01 µM): 113% | viability, T/C [5]: 117% | viability, T/C [6]: 7.88% | viability, T/C (second compound 1 µM, first compound 0.000316 µM): 95% | viability, T/C (second compound 1 µM, first compound 0.001 µM): 99.2% | viability, T/C (second compound 1 µM, first compound 0.00316 µM): 109% | viability, T/C (second compound 1 µM, first compound 0.01 µM): 112% | viability, T/C [7]: 117% | viability, T/C [8]: 5.23% | viability, T/C (second compound 3.16 µM, first compound 0.000316 µM): 99.5% | viability, T/C (second compound 3.16 µM, first compound 0.001 µM): 101% | viability, T/C (second compound 3.16 µM, first compound 0.00316 µM): 107% | viability, T/C (second compound 3.16 µM, first compound 0.01 µM): 111% | viability, T/C (second compound 3.16 µM, first compound 0.0316 µM): 112% | viability, T/C (second compound 3.16 µM, first compound 0.1 µM): 5.57% | viability, T/C (second compound 10 µM, first compound 0.000316 µM): 101% | viability, T/C (second compound 10 µM, first compound 0.001 µM): 97.2% | viability, T/C (second compound 10 µM, first compound 0.00316 µM): 100% | viability, T/C (second compound 10 µM, first compound 0.01 µM): 96.6% | viability, T/C (second compound 10 µM, first compound 0.0316 µM): 69.5% | viability, T/C (second compound 10 µM, first compound 0.1 µM): 4.27%
